# In patent US8008346B2, “Chemotherapeutic agents for inhibition of protein translation” (The Royal University for the Advancement of Learning/McGill …, priority 2006, dated 2011):
# What was measured:
# 80S complex formation = assay: Ribosome binding (80S complex formation) of 32P-labeled CAT mRNA in rabbit reticulocyte lysate; assay type: biochemical; conditions: CAT mRNA/CHX + 50 μM hippuristanol; CHX alone 22% binding
# Experimental: FIG. 6. Hippuristanol inhibits translation initiation. A. Hippuristanol inhibits 80S complex formation. ^32P-labeled CAT mRNA was incubated in rabbit reticulocyte lysate with cycloheximide (CHX) in the presence or absence of 50 μM hippuristanol. Complexes were resolved on glycerol gradients. Total counts recovered from each gradient and the percent mRNA bound in 80S complexes were: CAT mRNA/CHX [43,498 cpm, 22% binding] and CAT mRNA/CHX+Hipp. [45,279 cpm, 5.7% binding]. B. Hippuristanol inhibits crosslinking of eIF4Ac and eIF4B to capped mRNA. Initiation factors were chemically crosslinked to ^32P cap-labeled mRNA in the absence (lane 2) or presence of ATP (lanes 1, 3-6), 0.6 mM m^7GDP (lane 3), 0.6 mM GDP (lane 4), or 50 μM hippuristanol (lane 6). Following nuclease digestion, samples were resolved by SDS-PAGE and the gel subjected to autoradiography.
# Ribosome Binding and mRNA Crosslinking. Ribosome binding assays were performed by incubating ^32P-labelled CAT mRNA in rabbit reticulocyte lysate or wheat germ extracts in the presence of: 600 μM cycloheximide (CHX), 1 mM GMP-PNP, and/or 50 μM hippuristanol or vehicle for 10 min (33). […] Fractions of 500 μl were collected and radioactivity was determined by scintillation counting. […]
# HeLa cells = assay: 35S-methionine incorporation (protein synthesis) in HeLa cells; assay type: cell-based
# Experimental: FIG. 4. Effect of hippuristanol on protein, RNA and DNA synthesis in cells. A. Relative rate of ^35S-methionine incorporation as a function of hippuristanol concentration in HeLa cells. Cells were exposed to the indicated concentration of compound for 50 min., followed by a 10 min. labeling period with ^35S-methionine in the presence of compound. The rate of protein synthesis (TCA precipitable cpm) obtained in the presence of compound was normalized to the rate obtained in the presence of DMSO (which was set at 1). The rate of protein synthesis in the control reactions (containing DMSO vehicle) averaged ˜700,000 cpm/10 min. labeling period. Results are shown for two experiments and the error of the mean is presented. The relative rate of ^35S-methionine incorporation in HeLa cells exposed to 10 μM anisomycin (positive control) for 60 min. was ˜0.02 (data not shown). B. Effect of hippuristanol on protein (gray circles), DNA (open squares), and RNA (solid squares) synthesis in HeLa cells. The rate of macromolecular synthesis (TCA precipitable cpm for a 10 min. labeling period) obtained in the presence of 1 μM hippuristanol was normalized to the rate obtained in the presence of DMSO and is plotted. The results are shown for two experiments and the error of the mean is presented. The rate of protein, RNA and DNA synthesis in the control reactions (containing DMSO vehicle) averaged ˜900,000 cpm/10 min, ˜16,000 cpm/10 min. and 7,000 cpm/10 min labeling, respectively. The relative rate of ^35S-methionine incorporation by HeLa cells exposed to 10 μM anisomycin for 60 min. (positive control for inhibition of protein synthesis) was 0.02 (data not shown). The relative rate of ^3H-uridine incorporation by HeLa cells exposed to 50 μM actinomycin (positive control for inhibition of RNA synthesis) for 60 min. was 0.01 (data not shown). C. […] Gradients were analyzed by piercing the tube with a Brandel tube piercer, passing 60% sucrose through the bottom of the tube, and monitoring the absorbance of the material eluting from the tube using an ISCO UA-6 UV Detector.
# eIF4Ac = eIF4Ac (Homo sapiens, UniProt P60842); assay: Crosslinking of oxidized 32P-cap labeled CAT mRNA to native eIF4F (RNA binding); conditions: 50 μM, 0.7 μg native eIF4F
# Experimental: FIG. 7. Effects of hippuristanol on ATP hydrolysis, ATP binding, and RNA binding activities of eIF4A. A. Hippuristanol inhibits eIF4AIf RNA-dependent ATPase activity. The rate of ATP hydrolysis as a function of hippuristanol concentration is plotted relative to the rate obtained in the presence of vehicle (0.5% DMSO). ATP hydrolysis was measured in the presence of 2.5 μM poly (U) and monitored by thin layer chromatography. […] Samples were resolved by SDS-PAGE and subjected to autoradiography. C. The RNA binding activity of eIF4AIf is inhibited by hippuristanol. Oxidized ^32P-cap labeled CAT mRNA was incubated with recombinant eIF4AIf in the absence (lane 2) or presence of ATP (lanes 1, 3-6), 0.6 mM m^7GDP (lane 3), 0.6 mM GDP (lane 4), or 50 μM hippuristanol (lane 6). Following treatment with RNase A, samples were resolved by SDS-PAGE and subjected to autoradiography. The asterisk denotes the position of migration of a ˜30 kDa contaminant in the recombinant eIF4AIf preparation used as an internal loading reference. D. The RNA binding activity of eIF4Ac is inhibited by hippuristanol. Oxidized ^32P-cap labeled CAT mRNA was incubated with 0.7 μg of native eIF4F in the absence (lane 1) or presence (lane 2) of 50 μM hippuristanol. […]
# Ribosome Binding and mRNA Crosslinking. […] Fractions of 500 μl were collected and radioactivity was determined by scintillation counting. […]
# eIF4Ac, sequence (P60842 whole entry): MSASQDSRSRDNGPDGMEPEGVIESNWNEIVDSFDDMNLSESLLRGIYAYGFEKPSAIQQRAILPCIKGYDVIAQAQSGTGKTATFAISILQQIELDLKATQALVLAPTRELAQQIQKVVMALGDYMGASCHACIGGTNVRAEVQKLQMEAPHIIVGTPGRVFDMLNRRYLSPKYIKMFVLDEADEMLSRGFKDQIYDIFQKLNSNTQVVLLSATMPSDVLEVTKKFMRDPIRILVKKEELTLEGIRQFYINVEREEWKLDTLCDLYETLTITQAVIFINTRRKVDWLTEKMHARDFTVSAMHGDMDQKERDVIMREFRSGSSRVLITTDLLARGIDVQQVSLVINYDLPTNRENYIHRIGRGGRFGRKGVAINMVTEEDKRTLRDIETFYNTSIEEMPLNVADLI
# eIF4Ac, sequence (P06730 whole entry partner): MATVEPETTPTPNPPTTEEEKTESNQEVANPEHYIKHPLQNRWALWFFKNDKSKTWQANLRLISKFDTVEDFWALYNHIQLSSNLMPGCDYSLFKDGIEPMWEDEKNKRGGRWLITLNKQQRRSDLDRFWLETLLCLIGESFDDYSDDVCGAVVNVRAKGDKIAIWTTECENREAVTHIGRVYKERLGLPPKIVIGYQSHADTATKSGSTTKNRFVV
# eIF4Ac, sequence (Q04637 whole entry partner): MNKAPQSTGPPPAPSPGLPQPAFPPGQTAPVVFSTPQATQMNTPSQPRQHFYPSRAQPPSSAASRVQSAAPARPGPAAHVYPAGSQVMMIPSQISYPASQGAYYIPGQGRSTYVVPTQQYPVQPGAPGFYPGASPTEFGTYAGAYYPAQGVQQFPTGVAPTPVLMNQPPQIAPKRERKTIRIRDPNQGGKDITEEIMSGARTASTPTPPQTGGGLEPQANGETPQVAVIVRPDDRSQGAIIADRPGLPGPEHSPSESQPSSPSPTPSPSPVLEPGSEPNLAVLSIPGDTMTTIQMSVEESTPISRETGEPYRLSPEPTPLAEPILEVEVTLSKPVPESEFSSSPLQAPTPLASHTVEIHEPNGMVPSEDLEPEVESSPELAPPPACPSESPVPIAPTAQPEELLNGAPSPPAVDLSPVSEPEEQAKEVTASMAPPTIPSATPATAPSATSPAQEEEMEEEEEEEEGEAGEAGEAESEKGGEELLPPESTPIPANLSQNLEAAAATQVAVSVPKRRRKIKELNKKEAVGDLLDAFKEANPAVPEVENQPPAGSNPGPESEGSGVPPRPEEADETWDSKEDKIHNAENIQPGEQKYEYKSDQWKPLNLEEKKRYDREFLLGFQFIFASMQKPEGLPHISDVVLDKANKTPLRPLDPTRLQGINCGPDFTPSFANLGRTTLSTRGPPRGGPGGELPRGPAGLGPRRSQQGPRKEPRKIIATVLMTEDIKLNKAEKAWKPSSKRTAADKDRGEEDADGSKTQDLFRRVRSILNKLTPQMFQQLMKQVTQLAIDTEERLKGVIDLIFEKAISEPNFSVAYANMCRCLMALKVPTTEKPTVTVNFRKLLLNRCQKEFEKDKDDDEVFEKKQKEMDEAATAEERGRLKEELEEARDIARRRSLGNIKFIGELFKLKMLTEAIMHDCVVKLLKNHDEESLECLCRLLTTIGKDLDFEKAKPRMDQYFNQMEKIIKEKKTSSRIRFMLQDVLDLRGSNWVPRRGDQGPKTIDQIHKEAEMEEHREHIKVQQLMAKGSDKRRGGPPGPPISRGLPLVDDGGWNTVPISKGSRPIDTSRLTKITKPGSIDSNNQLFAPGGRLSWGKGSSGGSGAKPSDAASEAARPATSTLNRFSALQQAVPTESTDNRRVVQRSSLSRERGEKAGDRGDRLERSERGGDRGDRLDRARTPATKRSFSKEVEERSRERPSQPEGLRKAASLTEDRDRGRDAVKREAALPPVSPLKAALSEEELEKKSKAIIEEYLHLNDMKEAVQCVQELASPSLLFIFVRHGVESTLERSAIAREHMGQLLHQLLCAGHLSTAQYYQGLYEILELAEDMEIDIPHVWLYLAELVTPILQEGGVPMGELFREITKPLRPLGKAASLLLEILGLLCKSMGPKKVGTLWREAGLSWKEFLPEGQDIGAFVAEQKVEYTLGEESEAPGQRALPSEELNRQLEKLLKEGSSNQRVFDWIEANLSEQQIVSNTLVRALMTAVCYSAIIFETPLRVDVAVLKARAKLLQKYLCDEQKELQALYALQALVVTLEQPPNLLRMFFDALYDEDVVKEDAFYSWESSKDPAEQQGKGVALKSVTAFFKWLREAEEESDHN
smiles,measurement,setting,value
"C[C@H]1C[C@@]2(O[C@H]3C[C@H]4[C@@H]5CC[C@H]6C[C@H](O)CC[C@]6(C)[C@H]5[C@@H](O)C[C@]4(C)[C@H]3[C@@]2(C)O)OC1(C)C [Hippuristanol, hippuristanol]",percent mRNA bound in 80S complexes,80S complex formation,5.7%
same,eukaryotic protein synthesis (35S-methionine incorporation),HeLa cells; FIG. 4,inhibits
same,reversibility of the inhibitory effect on protein synthesis,"HeLa cells; HeLa cells, 1 μM for 60 min, then compound washed off",reversible
same,RNA binding activity of eIF4Ac,eIF4Ac,inhibited
